Measured values: US9048628B2, “Solid-state dye laser medium and process for production thereof” (KYUSHU UNIVERSITY, NATIONAL UNIVERSITY CORPORATION, priority 2011, dated 2015)

Key:
[1] = Maximum concentration soluble in polydimethylsiloxane (PDMS) when silicone oil was used; format: physicochemical; conditions: silicone oil used as in Example 2
Text: A DFB laser was produced in the same manner as in Example 1, except that a silicone oil (KF-1065, produced by Shin-Etsu Chemical Co., Ltd.) was used instead of toluene, and that the step of removing toluene was not performed.
(§1) Using the dyes indicated below, maximum concentrations at which they were soluble in polydimethylsiloxane (PDMS) were investigated in the same manners as in Examples 1 and 2.

[2] = Maximum concentration soluble in polydimethylsiloxane (PDMS) when toluene was used; format: physicochemical
Procedure: Pyrromethene 597 (PM597, produced by Exciton) as a dye was dissolved in toluene to prepare a solution of a saturated concentration (100 to 130 mmol/L). This dye solution was mixed at a mixing ratio of […] (volume ratio) with a dimethylsiloxane oligomer (SIM-360, produced by Shin-Etsu Chemical Co., Ltd.) being a polydimethylsiloxane precursor, and the mixture was stirred for 2 days for thorough uniform dispersing. Then, the dispersion was further heated at 72° C. to evaporate toluene, thus adjusting the system to a final dye concentration of 3 mmol/L.
as §1

[3] = dye unchanged, without silicone oil

CC1=C(S(=O)(=O)[O-])C(C)=[N+]2C1=C(C)c1c(C)c(S(=O)(=O)[O-])c(C)n1[B-]2(F)F.[Na+].[Na+] [PM556]
Behavior of dissolution in PDMS when silicone oil was used: State [1]: dispersed

CCC1=C(C)C2=C(C)c3c(C)c(CC)c(C)n3[B-](F)(F)[N+]2=C1C [PM567]
Behavior of dissolution in PDMS when silicone oil was used: State [1]: dissolved

CCCCC1=C(C)C2=C(C)c3c(C)c(CCCC)c(C)n3[B-](F)(F)[N+]2=C1C [PM580]
Behavior of dissolution in PDMS when silicone oil was used: State [1]: lumpy→

CC1=C(C(C)(C)C)C(C)=[N+]2C1=C(C)c1c(C)c(C(C)(C)C)c(C)n1[B-]2(F)F [PM597]
Highest concentration dissolving in dimethylsiloxane [2, 3]: 3 mmol/L | Behavior of dissolution in PDMS when toluene was used: State ([2]; toluene used as in Example 1): dissolved | Behavior of dissolution in PDMS when silicone oil was used: State [1]: dissolved

CCC1=C(C)C2=C(COC(C)=O)c3c(C)c(CC)c(C)n3[B-](F)(F)[N+]2=C1C [PM605]
Behavior of dissolution in PDMS when silicone oil was used: State [1]: dissolved

CC1=C(C)C(C)=[N+]2C1=C(C#N)c1c(C)c(C)c(C)n1[B-]2(F)F [PM650]
Dissolution in dimethylsiloxane (in words) [2, 3]: poses difficulty in dissolving to a lower limit concentration at which laser oscillation becomes possible | Behavior of dissolution in PDMS when silicone oil was used: State [1]: dissolved

CCN=c1cc2oc3cc(NCC)c(C)cc3c(-c3ccccc3C(=O)OCC)c-2cc1C.Cl [Rh6G]
Behavior of dissolution in PDMS when silicone oil was used: State [1]: lumpy→
